# Results: patent US6756373B1, “Pharmaceutically active compounds” (Pfizer Inc., priority 1999, dated 2004)
row,Compound,melting point
1,"CCCc1nn(C)c2c(=O)[nH]c(-c3cc(N)cnc3OC3CCC3)nc12 [Example 90, 5-[5-Amino-2-(cyclobutyloxy)-3-pyridinyl]-1-methyl-3-propyl-1,6-dihydro-7H-pyrazolo[4,3-d]pyrimidin-7-one]",185 to 185.5 °C
2,"CCCOc1ncc(N(C)C)cc1-c1nc2c(CCC)nn(C)c2c(=O)[nH]1 [Example 93, 5-[5-(Dimethylamino)-2-propoxy-3-pyridinyl]-1-methyl-3-propyl-1,6-dihydro-7H-pyrazolo[4,3-d]pyrimidin-7-one]",162 to 162.5 °C
3,"CCc1c2nc(-c3cc(C(C)=O)cnc3OCC(C)C)[nH]c(=O)c2nn1C1CCN(C)CC1 [Example 135, 5-(5-Acetyl-2-isobutoxy-3-pyridinyl)-3-ethyl-2-(1-methyl-4-piperidinyl)-2,6-dihydro-7H-pyrazolo[4,3-d]pyrimidin-7-one]",195 to 196 °C
4,"CCCOc1ncc(C#N)cc1-c1nc2c(CCC)nn(C)c2c(=O)[nH]1 [Example 70, 5-(1-Methyl-7-oxo-3-propyl-6,7-dihydro-1-pyrazolo[4,3-d]pyrimidin-5-yl)-6-propoxynicotinonitrile]",174 to 176 °C
5,"CCCOc1ncc(NC(C)=O)cc1-c1nc2c(CCC)nn(C)c2c(=O)[nH]1 [Example 92, N-[6-(Propoxy)-5-(1-methyl-7-oxo-3-propyl-6,7-dihydro-1H-pyrazolo[4,3-d]pyrimidin-5-yl)-3-pyridinyl]acetamide]",252 to 253 °C
6,"CCCc1nn(C)c2c(=O)[nH]c(-c3cc(NC(C)=O)cnc3OC3CCC3)nc12 [Example 89, N-[6-(Cyclobutyloxy)-5-(1-methyl-7-oxo-3-propyl-6,7-dihydro-1H-pyrazolo[4,3-d]pyrimidin-5-yl)-3-pyridinyl]acetamide]",279 to 281 °C
7,"CCCCOc1ncc(-c2ccco2)cc1-c1nc2c(CC)n(CCOC)nc2c(=O)[nH]1 [Example 12, 5-[2-Butoxy-5-(2-furyl)-3-pyridinyl]-3-ethyl-2-(2-methoxyethyl)-2,6-dihydro-7H-pyrazolo[4,3-d]pyrimidin-7-one]",154 to 155 °C
8,"CCCCOc1ncc(C(C)=O)cc1-c1nc2c(CC)n(C3CCN(C(=O)OC(C)(C)C)CC3)nc2c(=O)[nH]1 [Example 129, tert-Butyl 4-[5-(5-Acetyl-2-butoxy-3-pyridinyl)-3-ethyl-7-oxo-6,7-dihydro-2H-pyrazolo[4,3-d]pyrimidin-2-yl]-1-piperidinecarboxylate]",194 to 195 °C
9,"CCCOC(=O)Nc1cnc(OCCC)c(-c2nc3c(CCC)nn(C)c3c(=O)[nH]2)c1 [Example 94, Propyl 5-(1-Methyl-7-oxo-3-propyl-6,7-dihydro-1H-pyrazolo[4,3-d]pyrimidin-5-yl)-6-propoxy-3-pyridinylcarbamate]",210 to 211 °C
10,CCCOc1ncc(C#C[Si](C)(C)C)cc1-c1nc2c(CC)nn(CCN3CCOCC3)c2c(=O)[nH]1,132 to 134 °C
11,"CCCc1nn(C)c2c(=O)[nH]c(-c3cc([N+](=O)[O-])cnc3OC3CCC3)nc12 [Example 88, 5-[2-(Cyclobutyloxy)-5-nitro-3-pyridinyl]-1-methyl-3-propyl-1,6-dihydro-7H-pyrazolo[4,3-d]pyrimidin-7-one]",212 to 214 °C
12,"CCCOc1ncc(NC(=O)N(C)C)cc1-c1nc2c(CCC)nn(C)c2c(=O)[nH]1 [Example 91, N′-[6-(Propoxy)-5-(1-methyl-7-oxo-3-propyl-6,7-dihydro-1H-pyrazolo[4,3-d]pyrimidin-5-yl)-3-pyridinyl]-N,N-dimethylurea]",219 to 220 °C

# Further lines, results first:
row,melting point,Compound
1,221 °C,"C#Cc1cnc(OCCC)c(-c2nc3c(CC)n(C4CCN(C(=O)OC(C)(C)C)CC4)nc3c(=O)[nH]2)c1 [Example 112, tert-Butyl 4-[3-Ethyl-5-(5-ethynyl-2-propoxy-3-pyridinyl)-7-oxo-6,7-dihydro-2H-pyrazolo[4,3-d]pyrimidin-2-yl]-1-piperidinecarboxylate]"
2,176.5 to 177.7 °C,"CCCOc1ncc(C(C)=O)cc1-c1nc2c(CC)n(C3CN(C(C)CC)C3)nc2c(=O)[nH]1 (stereo not shown) [Example 123, 5-(5-Acetyl-2-propoxy-3-pyridinyl)-2-(1-sec-butyl-3-azetidinyl)-3-ethyl-2,6-dihydro-7H-pyrazolo[4,3-d]pyrimidin-7-one]"
3,175.9 to 177 °C,"CCCOc1ncc(C(C)=O)cc1-c1nc2c(CC)n(C3CN(C)C3)nc2c(=O)[nH]1 [Example 120, 5-(5-Acetyl-2-propoxy-3-pyridinyl)-3-ethyl-2-(1-methyl-3-azetidinyl)-2,6-dihydro-7H-pyrazolo[4,3-d]pyrimidin-7-one]"
4,229.3 to 230.1 °C,"CCCOc1ncc(C(C)=O)cc1-c1nc2c(CC)n(C3CN(C(C)=O)C3)nc2c(=O)[nH]1 [Example 121, 2-(1-Acetyl-3-azetidinyl)-5-(5-acetyl-2-propoxy-3-pyridinyl)-3-ethyl-2,6-dihydro-7H-pyrazolo[4,3-d]pyrimidin-7-one]"
5,137 to 139 °C,"C#Cc1cnc(OCCC)c(-c2nc3c(CC)nn(CCN4CCOCC4)c3c(=O)[nH]2)c1 [Example 107, 3-Ethyl-5-(5-ethynyl-2-propoxy-3-pyridinyl)-1-[2-(4-morpholinyl)ethyl]-1,6-dihydro-7H-pyrazolo[4,3-d]pyrimidin-7-one]"
6,184 to 185 °C,CCCCOc1ncc(C(C)=O)cc1-c1nc2c(CC)n(CC3CC3)nc2c(=O)[nH]1 [Example 127]
7,219 to 220 °C,"CCCOc1ncc(C(C)=O)cc1-c1nc2c(CC)n(C3CCN(C)CC3)nc2c(=O)[nH]1 [Example 125, 5-(5-Acetyl-2-propoxy-3-pyridinyl)-3-ethyl-2-(1-methyl-4-piperidinyl)-2,6-dihydro-7H-pyrazolo[4,3-d]pyrimidin-7-one]"
8,175 to 177 °C,"CCCOc1ncc(I)cc1-c1nc2c(CC)nn(CCN3CCOCC3)c2c(=O)[nH]1 [Example 95, 3-Ethyl-5-(5-iodo-2-propoxy-3-pyridinyl)-1-[2-(4-morpholinyl)ethyl]-1,6-dihydro-7H-pyrazolo[4,3-d]pyrimidin-7-one]"
9,200 to 201 °C,CCOc1ncc(C(C)=O)cc1-c1nc2c(CC)n(CC3CC3)nc2c(=O)[nH]1 [Example 128]
10,162.8 to 163.6 °C,"CCCOc1ncc(C(C)=O)cc1-c1nc2c(CC)n(C3CN(C(C)C)C3)nc2c(=O)[nH]1 [Example 124, 5-(5-Acetyl-2-propoxy-3-pyridinyl)-3-ethyl-2-(1-isopropyl-3-azetidinyl)-2,6-dihydro-7H-pyrazolo[4,3-d]pyrimidin-7-one]"
11,217.9 to 218.7 °C,"CCOc1ncc(C(C)=O)cc1-c1nc2c(CC)nn(Cc3nccn3C)c2c(=O)[nH]1 [Example 138, 5-(5-Acetyl-2-ethoxy-3-pyridinyl)-3-ethyl-1-[(1-methyl-1H-imidazol-2-yl)methyl]-1,6-dihydro-7H -pyrazolo[4,3-d]pyrimidin-7-one]"
12,140 to 143 °C,"CCCOc1ncc(C(C)=O)cc1-c1nc2c(CC)nn(CCN3CCOCC3)c2c(=O)[nH]1 [Example 113, 5-(5-Acetyl-2-propoxy-3-pyridinyl)-3-ethyl-1-[2-(4-morpholinyl)ethyl]-1,6-dihydro-7H-pyrazolo[4,3-d]pyrimidin-7-one]"
13,128.5 to 130 °C,"CCCOc1ncc(C(C)=O)cc1-c1nc2c(CC)n(C3CNC3)nc2c(=O)[nH]1 [Example 117, 5-(5-Acetyl-2-propoxy-3-pyridinyl)-2-(3-azetidinyl)-3-ethyl-2,6-dihydro-7H-pyrazolo[4,3-d]pyrimidin-7-one]"
